The target in experiment [1] is T1, cloned human 5-HT1A receptors (Homo sapiens, UniProt P08908).
T1 construct: expressed in transfected cells
T1 sequence (P08908 1-422): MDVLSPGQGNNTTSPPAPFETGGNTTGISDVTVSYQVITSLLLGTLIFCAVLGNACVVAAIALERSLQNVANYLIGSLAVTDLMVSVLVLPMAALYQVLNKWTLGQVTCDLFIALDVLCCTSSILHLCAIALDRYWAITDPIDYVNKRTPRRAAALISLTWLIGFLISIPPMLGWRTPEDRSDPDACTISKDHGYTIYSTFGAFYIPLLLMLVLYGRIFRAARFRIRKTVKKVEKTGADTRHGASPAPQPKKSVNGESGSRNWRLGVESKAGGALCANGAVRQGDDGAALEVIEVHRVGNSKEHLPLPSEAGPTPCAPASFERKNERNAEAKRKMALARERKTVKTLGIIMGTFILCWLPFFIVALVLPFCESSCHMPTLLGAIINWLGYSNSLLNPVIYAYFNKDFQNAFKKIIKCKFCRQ
The experiment in a line: 35S-GTPγS binding assay, 5-HT1A function. Format: biochemical. The conditions noted are these: for IC50: antagonist potency, reversal of effects of standard agonist 8-OHDPAT on 35S-GTPγS binding; for 5-HT1A Function (Imax): maximum inhibitory effect, 35S-GTPγS binding, reversal of 8-OHDPAT, unit assumed. How it is done: Antagonist activity at 5-HT1A receptors was established by using a ^35S-GTPγS binding assay similar to that used by Lazareno and Birdsall (Br. J. Pharmacol. 109: 1120, 1993), in which the test compound's ability to affect the binding of ^35S-GTPγS to membranes containing cloned human 5-HT1A receptors was determined. Agonists produce an increase in binding whereas antagonists produce no increase but rather reverse the effects of the standard agonist 8-OHDPAT. The test compound's maximum inhibitory effect is represented as the Imax, while its potency is defined by the IC50.

The next experiment addresses T2, human 5-HT1A receptors (Homo sapiens, UniProt P08908).
T2 construct: expressed in transfected cells; host or cells: CHO cells (stably transfected)
T2 sequence (P08908 1-422): T1 sequence (P08908 1-422)
The experiment in a line: [3H] 8-OHDPAT displacement from the 5-HT1A serotonin receptor (transfected CHO cells). The conditions noted are these: displacement of [3H] 8-OHDPAT; CHO cells stably transfected with human 5-HT1A receptors; read-out: 5-HT1A Receptor Affinity Ki. The class given is binding. An excerpt:
High affinity for the serotonin 5-HT1A receptor was established by testing the claimed compound's ability to displace [^3H] 8-OHDPAT (dipropylaminotetralin) from the 5-HT1A serotonin receptor following a modification of the procedure of Hall et al., J. Neurochem. 44, 1685 (1985) which utilizes CHO cells stably transfected with human 5-HT1A receptors.
For orientation: Displacement assays read how much labelled ligand stays bound in the presence of the test substance.

The next experiment concerns the target T3, serotonin transporter (Rattus norvegicus, UniProt P31652).
T3 construct: displace ^3H-paroxetine from male rat frontal cortical membranes; from tissue; host or cells: male rat frontal cortex membranes
In words: 3H-paroxetine displacement, affinity for the serotonin transporter. Format: binding. The conditions noted are these: displacement of 3H-paroxetine from male rat frontal cortical membranes; read-out: 5-HT Transporter Affinity Ki.

Experiment [2] deals with T1, cloned human 5-HT1A receptors. In words: 35S-GTPγS binding assay, 5-HT1A function. Format: biochemical. A general note: GTPγS resists hydrolysis and so accumulates on activated G proteins.

T3 sequence (P31652 whole entry): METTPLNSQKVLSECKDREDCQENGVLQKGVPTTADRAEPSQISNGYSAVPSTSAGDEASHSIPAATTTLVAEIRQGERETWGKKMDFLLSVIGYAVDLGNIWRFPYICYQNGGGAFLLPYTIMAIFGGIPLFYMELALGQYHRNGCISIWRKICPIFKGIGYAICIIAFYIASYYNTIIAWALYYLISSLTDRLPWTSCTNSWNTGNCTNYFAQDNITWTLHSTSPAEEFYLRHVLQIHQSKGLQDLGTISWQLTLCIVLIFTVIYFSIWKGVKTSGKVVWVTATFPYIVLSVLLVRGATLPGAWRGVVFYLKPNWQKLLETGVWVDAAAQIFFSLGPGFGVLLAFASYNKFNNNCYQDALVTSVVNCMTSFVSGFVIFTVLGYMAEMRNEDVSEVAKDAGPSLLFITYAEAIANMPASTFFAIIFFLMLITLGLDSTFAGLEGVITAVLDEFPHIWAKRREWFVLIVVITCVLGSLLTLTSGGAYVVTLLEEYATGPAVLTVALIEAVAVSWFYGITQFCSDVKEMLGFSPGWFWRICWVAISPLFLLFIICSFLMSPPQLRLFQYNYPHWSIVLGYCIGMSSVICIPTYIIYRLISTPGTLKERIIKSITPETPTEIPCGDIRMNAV

Take `COc1cccc2c1O[C@@H](CN[C@H]1CC[C@H](c3c[nH]c4ccc(F)cc34)C1)CO2` (mixture of isomers) [Example 2, N-[(trans)-3-(5-fluoro-1H-indol-3-yl)cyclopentyl]-N-{[(2S)-8-methoxy-2,3 dihydro-1,4-benzodioxin-2-yl]methyl}amine]: in experiment [1], the IC50 (usually the concentration that gives 50% inhibition) is 7 nM and the 5-HT1A Function (Imax) was 99%. On human 5-HT1A receptors, the Ki – broadly, a dissociation constant, usually derived from enzyme kinetics or from competition with a known ligand – came to 14.5 nM. Moreover, the inhibition constant (Ki) on serotonin transporter was 0.6 nM.

For `COc1cccc2c1O[C@@H](CN[C@H]1CC[C@@H](c3cn(C)c4ccc(F)cc34)C1)CO2` (mixture of isomers) [Example 3, N-[(cis)-3-(5-fluoro-1-methyl-1H-indol-3-yl)cyclopentyl]-N-{[(2S)-8-methoxy-2,3-dihydro-1,4-benzodioxin-2-yl]methyl}amine], the IC50 in experiment [1] amounted to 152 nM. The 5-HT1A Function (Imax) in experiment [1] was 64%. Also, the Ki was 10.8 nM at human 5-HT1A receptors and 12 nM at serotonin transporter.

In the case of `COc1cccc2c1O[C@@H](CN[C@H]1CC[C@H](c3cn(C)c4ccc(F)cc34)C1)CO2` (mixture of isomers) [Example 4, N-[(trans)-3-(5-fluoro-1-methyl-1H-indol-3-yl)cyclopentyl]-N-{[(2S)-8-methoxy-2,3-dihydro-1,4-benzodioxin-2-yl]methyl}amine], the IC50 in experiment [1] was found to be 53 nM. In addition, in experiment [1], the 5-HT1A Function (Imax) turned out to be 79%. The Ki on human 5-HT1A receptors was found to be 3.02 nM; at serotonin transporter it was 3.86 nM.

`CCOc1cccc2c1O[C@@H](CN[C@H]1CC[C@@H](c3c[nH]c4ccc(F)cc34)C1)CO2` (mixture of isomers) [Example 5, N-{[(2S)-8-ethoxy-2,3-dihydro-1,4-benzodioxin-2-yl]methyl}-N-[(cis)-3-(5-fluoro-1H-indol-3-yl)cyclopentyl]amine]: in experiment [1], the IC50 came to 105 nM and the 5-HT1A Function (Imax) is 48%. Also, the inhibition constant (Ki) at human 5-HT1A receptors came to 8.09 nM. Further, the Ki on serotonin transporter worked out at 0.6 nM.

For the compound `CCOc1cccc2c1O[C@@H](CN[C@H]1CC[C@H](c3c[nH]c4ccc(F)cc34)C1)CO2` (mixture of isomers) [Example 6, N-{[(2S)-8-ethoxy-2,3-dihydro-1,4-benzodioxin-2-yl]methyl}-N-[(trans)-3-(5-fluoro-1H-indol-3-yl)cyclopentyl]amine], in experiment [1], the IC50 was found to be 359 nM and the 5-HT1A Function (Imax) turned out to be 25%. Also, the Ki on human 5-HT1A receptors was determined as 25.2 nM. For the same compound, the Ki on serotonin transporter was 0.43 nM.

For `COc1cccc2c1O[C@@H](CN[C@@H]1CC[C@H](c3c[nH]c4ccc(F)cc34)C1)CO2` (single isomer, unassigned) [Example 1-Isomer A, N-[(1R*,3S*)-3-(5-fluoro-1H-indol-3-yl)cyclopentyl]-N-{[(2S)-8-methoxy-2,3-dihydro-1,4-benzodioxin-2-yl]methyl}amine], in experiment [1], the IC50 is 30 nM and the 5-HT1A Function (Imax) was 78%. In addition, the Ki on human 5-HT1A receptors came out at 7.52 nM. At serotonin transporter, the inhibitory constant (Ki) came out at 1.28 nM.

As to `COc1cccc2c1O[C@@H](CN[C@H]1CC[C@@H](c3c[nH]c4ccc(F)cc34)C1)CO2` (single isomer, unassigned) [Example 1-Isomer B, N-[(1S*,3R*)-3-(5-fluoro-1H-indol-3-yl)cyclopentyl]-N-{[(2S)-8-methoxy-2,3-dihydro-1,4-benzodioxin-2-yl]methyl}amine], in experiment [1], the IC50 is 22 nM and the 5-HT1A Function (Imax) amounted to 100%. Also, the Ki on human 5-HT1A receptors is 3.61 nM. Further, the Ki at serotonin transporter was 1.92 nM.

As for `COc1cccc2c1O[C@@H](CN[C@H]1CC[C@H](c3c[nH]c4ccc(F)cc34)C1)CO2` (single isomer, unassigned) [Example 2-Isomer A, N-[(1S*,3S*)-3-(5-fluoro-1H-indol-3-yl)cyclopentyl]-N-{[(2S)-8-methoxy-2,3-dihydro-1,4-benzodioxin-2-yl]methyl}amine], the IC50 in experiment [1] is 375 nM. Besides, the 5-HT1A Function (Imax) in experiment [1] was determined as 84%. For the same compound, the Ki came out at 23.6 nM at human 5-HT1A receptors and 1 nM at serotonin transporter.

In the case of `COc1cccc2c1O[C@@H](CN[C@@H]1CC[C@@H](c3c[nH]c4ccc(F)cc34)C1)CO2` (single isomer, unassigned) [Example 2-Isomer B, N-[(1R*,3R*)-3-(5-fluoro-1H-indol-3-yl)cyclopentyl]-N-{[(2S)-8-methoxy-2,3-dihydro-1,4-benzodioxin-2-yl]methyl}amine], in experiment [1], the IC50 was 76 nM and the 5-HT1A Function (Imax) came out at 32%. For the same compound, on human 5-HT1A receptors, the Ki was 2.05 nM. In addition, the Ki on serotonin transporter was 0.8 nM.

As for `COc1cccc2c1O[C@@H](CN[C@@H]1CC[C@H](c3c[nH]c4ccc(C#N)cc34)C1)CO2` (single isomer, unassigned) [Example 7-Isomer A], the values for the Ki on human 5-HT1A receptors and on serotonin transporter were 5.29 nM and 0.64 nM, respectively.

Take `COc1cccc2c1O[C@@H](CN[C@H]1CC[C@H](c3c[nH]c4ccc(C#N)cc34)C1)CO2` (single isomer, unassigned) [Example 7-Isomer B]: in experiment [1], the IC50 worked out at 24 nM. Also, the 5-HT1A Function (Imax) in experiment [1] turned out to be 56%. Further, the Ki was determined as 9.62 nM at human 5-HT1A receptors and 0.57 nM at serotonin transporter.

`COc1cccc2c1O[C@@H](CN[C@@H]1CC[C@H](c3cn(C)c4ccc(C#N)cc34)C1)CO2` (single isomer, unassigned) [Example 8-Isomer A]: the Ki was found to be 12.6 nM on human 5-HT1A receptors and 6 nM on serotonin transporter. In addition, the EC50 (as a rule, the concentration giving half of the maximal effect) in experiment [2] (given as EC50) came out at 23 nM. In experiment [2] (given as Emax), the Emax (usually the greatest response seen or fitted, relative to the assay's reference) was found to be 64%.

Consider `COc1cccc2c1O[C@@H](CN[C@H]1CC[C@H](c3cn(C)c4ccc(C#N)cc34)C1)CO2` (single isomer, unassigned) [Example 8-Isomer B], for which the figures for the Ki on human 5-HT1A receptors and on serotonin transporter were 25.5 nM and 8 nM, respectively.

Consider `COc1cccc2c1OC(CNC1CCC(c3c[nH]c4ccc(F)cc34)C1)CO2` [Example 1, N-[(cis)-3-(5-fluoro-1H-indol-3-yl)cyclopentyl]-N-{([(2S)-8-methoxy-2,3-dihydro-1,4-benzodioxin-2-yl]methyl}amine], for which the IC50 in experiment [1] was determined as 55 nM. For the same compound, the 5-HT1A Function (Imax) in experiment [1] is 100%. Also, the Ki at human 5-HT1A receptors was determined as 5.82 nM; at serotonin transporter, 1.07 nM.
